Laboratory results as given in patent EP4342905B1, “1,N6-ETHENOADENOSINE DERIVATIVES FOR CANCER TREATMENT” (PHILIPPS-UNIVERSITÄT MARBURG, priority 2022, dated 2024).
Where a name gives a salt, the structure may show the parent alone.

Columns and labels:
[1] = logPOW determination, water/1-octanol distribution with UV/VIS readout; assay type: physicochemical; conditions: 1 h stirring, room temperature (23 °C), ratio of maximal UV absorbances; for logP at 1 h: read-out: logPOW (measured)
Experimental: All logPOW values reported herein are determined as follows: 2 mg of the compound to be measured are distributed in a 250 ml beaker between a two-phase mixture of water (50 ml) and 1-octanol (50 ml) and stirred for 1 h on a magnetic stirrer at room temperature (23 °C). After separation of the layers, 3 ml of each phase are removed and transferred into a 3.5 ml quartz cuvette (10 x 10 mm, 3500 µl; Hellma, Darmstadt, Germany) and measured on a UV/VIS spectrometer (Cary 50, Varian, Darmstadt, Germany). From the ratio of maximal absorbances in both layers (λmax) the corresponding log10POW values are determined.

Panc-1 cells = experiment: CellTiter-Glo Luminescent Cell Viability Assay, Panc-1 as PDAC model; assay type: cell-based, human; conditions: for IC50: Panc-1 cells, 72 h compound incubation, mean ± SD of at least three independent biological repeats; for activity against human Panc-1 pancreatic carcinoma cells compared to gemcitabine: comparison with gemcitabine
Experimental: The biological antitumor-activity of adenosine derivatives according to Formula I towards pancreatic ductal adenocarcinoma (PDAC) was evaluated by utilizing the established cell line Panc-1 as a PDAC model by applying the CellTiter-Glo® Luminescent Cell Viability Assay (Promega) after 72 h of compound incubation. Gemcitabine (100 µM) was used as a positive control. To analyze the cytotoxic efficacy in Panc-1 cells, dose-response curves were generated for each compound, starting from a concentration of 100 µM with serial dilution of 1:3. IC50 values are shown as arithmetic means of at least three independent biological repeats in following Table 1. Table 1: IC50-Values for the inhibition of PADC by adenosine and 1,N6-ethenoadenosine derivatives (with the respective standard deviations SD)

Structure (SMILES) | logPOW (measured) [1] | IC50 (Panc-1 cells) [µM] | logP at 1 h [1] | IC50 (Panc-1 cells; Homo sapiens) [µM] | activity against human Panc-1 pancreatic carcinoma cells compared to gemcitabine (Panc-1 cells)
CCCCCCCCCCCCCC1(CC)O[C@@H]2[C@H](O1)[C@@H](CO)O[C@H]2n1cnc2c1ncn1ccnc21.Cl (stereo partly drawn) [Compound 4d, ((2R/2S,3aR,4R,6R,6aR)-6-(3H-imidazo[2,1-i]purin-3-yl)-2-ethyl-2-tridecyltetrahydrofuro[3,4-d][1,3]dioxol-4-yl)methanol Hydrochloride] | 2.29 | 16 ± 4.31 |  |  | 
CCCCCCCC1(CCCCCCC)O[C@@H]2[C@H](O1)[C@@H](CO)O[C@H]2n1cnc2c(N)ncnc21 [Compound 2a, ((3aR,4R,6R,6aR)-6-(6-amino-9H-purin-9-yl)-2,2-diheptyltetrahydrofuro[3,4-d][1,3]dioxol-4-yl)methanol] | 2.82 |  | 2.82 | 14.58 ± 0.14 | more active
CCCCCCCCCCCCCC1(C)O[C@@H]2[C@H](O1)[C@@H](CO)O[C@H]2n1cnc2c(N)ncnc21 (stereo partly drawn) [Compound 2c, ((2R/2S,3aR,4R,6R,6aR)-6-(6-amino-9H-purin-9-yl)-2-methyl-2-tridecyltetrahydrofuro[3,4-d][1,3]dioxol-4-yl)methanol] | 2.83 |  |  |  | 
CCCCCCCCC1(CCCCCCCC)O[C@@H]2[C@H](O1)[C@@H](CO)O[C@H]2n1cnc2c(N)ncnc21 [Compound 2b, ((3aR,4R,6R,6aR)-6-(6-amino-9H-purin-9-yl)-2,2-dioctyltetrahydrofuro[3,4-d][1,3]dioxol-4-yl)methanol] | 3.86 |  | 3.86 |  | 
CCCCCCCCC1(CCCCCCCC)O[C@@H]2[C@H](O1)[C@@H](CO)O[C@H]2n1cnc2c1ncn1ccnc21 [Compound 4b, ((3aR,4R,6R,6aR)-6-(3H-imidazo[2,1-i]purin-3-yl)-2,2-dioctyitetrahydrofuro[3,4-d][1,3]dioxol-4-yl)methanol Hydrochloride] | 2.57 |  | 2.57 | 16.2 ± 1.35 | more active
CCCCCCCCCCCCCC1(C)O[C@@H]2[C@H](O1)[C@@H](CO)O[C@H]2n1cnc2c(N)ncnc21.Cl (stereo partly drawn) [Compound 4c, ((2R/2S,3aR,4R,6R,6aR)-6-(6-amino-9H-purin-9-yl)-2-methyl-2-tridecyltetrahydrofuro[3,4-d][1,3]dioxol-4-yl)methanol Hydrochloride] | 2.75 | 30.6 ± 2.53 |  |  | more active
Cl.OC[C@H]1O[C@@H](n2cnc3c2ncn2ccnc32)[C@@H]2OC3(CCCCCCCCCCCCCC3)O[C@@H]21 [Compound 5, ((3a'R,4'R,6'R,6a'R)-4'-(3H-imidazo[2,1-i]purin-3-yl)tetrahydrospiro[cyclopentadecane-1,2'-furo[3,4-d][1,3]dioxol]-6'-yl)methanol Hydrochloride] | 1.67 |  | 1.67 | 23.1 ± 3.6 | 
CCCCCCCCCCCCCC1(CC)O[C@@H]2[C@H](O1)[C@@H](CO)O[C@H]2n1cnc2c(N)ncnc21 (stereo partly drawn) [Compound 2d, ((2R/2S,3aR,4R,6R,6aR)-6-(6-amino-9H-purin-9-yl)-2-ethyl-2-tridecyltetrahydrofuro[3,4-d][1,3]dioxol-4-yl)methanol] | 3.60 | 14.6 ± 0.69 |  |  | more active
CCCCCCCC1(CCCCCCC)O[C@@H]2[C@H](O1)[C@@H](CO)O[C@H]2n1cnc2c1ncn1ccnc21.Cl [Compound 4a, ((3aR,4R,6R,6aR)-6-(3H-imidazo[2,1-i]purin-3-yl)-2,2-diheptyltetrahydrofuro[3,4-d][1,3]dioxol-4-yl)methanol Hydrochloride] | 2.40 |  | 2.4 | 17.1 ± 3.14 | 
